The results in this text go back to publication PMC11342128, “Gold(I) and gold(III) carbene complexes from the marine betaine norzooanemonin: inhibition of thioredoxin reductase, antiproliferative and antimicrobial activity” (RSC Medicinal Chemistry, 2024).

Holding throughout (type): cell-based
Series [1] concerns Enterococcus faecium DSM20477. Briefly: Antibacterial activity (MIC, curve fitting). Particulars: Table S12; ± standard error of the mean.
In series [2] the test system is Klebsiella pneumoniae DSM111678. Briefly: Antibacterial activity (MIC, curve fitting). Particulars: Table S12; ± standard error of the mean.
Series [3] concerns A549 cells. Briefly: Gold cellular uptake, HRCS-AAS. Particulars: 2 μM, Fig. 5. As for the experimental part:
The amount of potential drug accumulated in the cell is often described as one of the critical factors for further biological effect. The significant difference in antiproliferative effect observed for dicarbene complexes 5a–c may be directly related to the amount of gold ions taken up by the treated cells. The cellular accumulation of these complexes was evaluated in the most sensitive cancer cell line A549. […] The gold content was further quantified using high-resolution continuum source atomic absorption spectroscopy (HRCS-AAS).
S2.4. Cellular uptake and metal quantification studies in A549 cells
Cellular uptake studies in A549 cells
For cellular accumulation studies, A549 lung carcinoma cells were seeded in 75 cm2 cell culture flasks, incubated with 10 ml DMEM/10% FCS cell culture medium at 37 °C in a 5% CO2 humidified atmosphere until they reached a confluence of 75-80%. The cells were treated with DMEM containing selected test compounds 3a and 3c dissolved in DMF (final DMF concentration: 0.1%; final test compound concentration: 2 μM). After 6 and 24 h of exposure, cells were isolated by removing the media followed by trypsinization. The trypsinized cells were washed with 9 ml PBS buffer (pH 7.4), scraped, and isolated by centrifugation (5 min, 3500 rpm). The obtained cell pellets were stored at -20 °C for further use. All experiments were carried out in triplicate.
Metal quantification in cell lysates by HRCS-AAS
Dry cell pellets were diluted with 400 μl of Milli-Q® water and lysed for 30 min in an ultrasonic bath (240 W, […]). For protein quantification. 20 μl of each sample was added to 200 μl of Bradford reagent (25 mg Serva Blue G (Sigma Aldrich) in 25 ml Ethanol 96%, 25 ml Milli-Q® water and 50 ml H3PO4 86%, stored at -20 °C and freshly diluted 1+4 with Milli-Q® water prior to use) and incubated on a 96-well plate while shaking at room temperature for 30 min and measured by a Perkin Elmer Victor X4 plate reader at a wavelength of 595 nm. The measurements were performed in duplicate, and the mean was used to calculate the protein content. For a standard calibration curve, bovine serum albumin (Sigma Aldrich) was used in graded concentrations.
The gold quantification was performed using a high-resolution continuum source atomic absorption spectrometer ContrAA® 700 (Analytik Jena AG). A pure sample of the respective complex 5c was used as standard, and calibration was done in a matrix-matched manner (meaning all samples and standards were adjusted to a protein concentration of 1 mg/ml by dilution with Milli-Q® water). The calibration and samples were measured in duplicate. The final cellular gold concentrations were calculated from data obtained in three independent experiments and are expressed as pmol of metal per mg of cell protein. Sample preparation: Triton-X 100 (1%, 20 μl) and ascorbic acid (1%, 20 μl) were added to each calibration standard or probe (200 μl). A volume of 20 μl was injected into a coated standard graphite tube (Analytik Jena AG) and thermally processed as previously described.[10] The gold amount was analyzed at a wavelength of 242.79 nm.

For `Cn1cc(C(=O)O)[n+](C)[c]1[Au-]([Cl])([Cl])[c]1n(C)cc(C(=O)O)[n+]1C.[Cl-]` [5a], in series [1], the “MIC, E. faecium” value was more than 100 µM. In series [2], the “MIC, K. pneumoniae” value was more than 100 µM. Moreover, the “Gold uptake (cellular gold content)” value in series [3] (6 h, 37 °C) is on record as “low gold uptake”.

Turning to `CCOC(=O)c1cn(C)[c]([Au-]([Cl])([Cl])[c]2n(C)cc(C(=O)OCC)[n+]2C)[n+]1C.F[B-](F)(F)F` [5c], the “MIC, E. faecium” value in series [1] is more than 100 µM. For the same compound, in series [2], the “MIC, K. pneumoniae” value is more than 100 µM. Besides, the “Gold uptake (cellular gold content)” value in series [3] (6 h, 37 °C) was “higher degree of gold uptake”; in series [3] (24 h compared with 6 h), “decreased significantly”.

`COC(=O)c1cn(C)[c]([Au-]([Cl])([Cl])[c]2n(C)cc(C(=O)OC)[n+]2C)[n+]1C.O=S(=O)([O-])C(F)(F)F` [5b]: in series [1], the “MIC, E. faecium” value was more than 100 µM. In addition, the “MIC, K. pneumoniae” value in series [2] is more than 100 µM. Further, the “Gold uptake (cellular gold content)” value was “higher degree of gold uptake” in series [3] (6 h, 37 °C) and “decreased significantly” in series [3] (24 h compared with 6 h).
